Values joined by “and” are separate entries in the source; they are usually repeats but may differ in a detail not shown here. Equal entries are not always repeated. Where two headings read alike, the source gives them in different places.
Assay: Ocular tissue concentrations (aqueous humor, vitreous humor, iris, retina, choroid, cornea) after topical ocular, subcutaneous and intravitreal administration
Assay type: in vivo, New Zealand White rabbits
Protocol: To measure the concentration of Compound 1 in plasma and ocular tissues following topical ocular, subcutaneous, and intravitreal administration, New Zealand White rabbits were administered Compound 1, and plasma and ocular samples were collected at pre-determined time points. Compound 1 formulations were prepared fresh on each day of dosing.
Ocular tissue samples from both eyes of each animal were collected and weights were recorded. Plasma and ocular tissue sample concentrations of Compound 1 were determined by LC-MS/MS.
New Zealand White rabbits weighing 2.5 to 3.5 kg were used on this study. Rabbits were housed one per cage. Animals were not fasted and only healthy animals with no ocular illness were used. Two rabbits per group were sacrificed at each of four ocular tissue sampling time points for a total of eight rabbits per group.
Animals were anesthetized for ocular (topical) and intravitreal dosing following the 12IA7 IACUC protocol. Each rabbit received a bolus dose of test formulation either via topical ocular administration 3 times daily on Days 1 and 2 (at 0, 6, and 12 hours), and once on Day 3 (at 0 hours) into both eyes; via intravitreal administration into both eyes once on Day 1 (at 0 hours); or via subcutaneous administration 2 times daily on Days 1 and 2 (at 0 and 8 hours) and once daily on Day 3 (at 0 hours). Doses were given within an approximately 1 hour window each day where applicable.
On Day 1, for intravitreal administration, or on Day 3, for topical ocular and subcutaneous administration, at the appropriate ocular tissue collection time points, animals were euthanized and both eyes were enucleated immediately. Following enucleation, each eye was rinsed with phosphate-buffered saline. Ocular tissue samples from both eyes of each animal were collected at predetermined time points and weights were recorded. All the samples were frozen immediately on dry ice, and stored at −60° C. to −80° C. pending bioanalysis.
An LC-MS/MS method was developed for the determination of Compound 1 in rabbit aqueous tissues (plasma, aqueous and vitreous humor) and solid ocular tissue samples. A pre-study standard curve was analyzed to determine the specificity, range, and lower limit of quantitation of the method. Plasma and tissue homogenate study samples were extracted and analyzed. All the samples were treated identically to the standards.
One eight-point standard curve was used in each analytical batch. To be accepted, each batch must have had at least five of eight standards with accuracy within ±20% of nominal, except at the lower limit of quantification (LLOQ), where ±25% was acceptable.
Concentration versus time data is plotted in FIGS. 3-16. All data are expressed as ng/g of the free drug. Samples that were below the limit of quantitation (0.2 ng/mL) were not used in the calculation of averages.

[1] = Group 3 subcutaneous 5 mg/kg, 0.5 hr
[2] = Group 3 subcutaneous 5 mg/kg, 1.0 hr
[3] = Group 3 subcutaneous 5 mg/kg, 2.0 hr
[4] = Group 3 subcutaneous 5 mg/kg, 4.0 hr
[5] = Group 5 intravitreal 2.5 mg per eye, 6.0 hr
[6] = Group 5 intravitreal 2.5 mg per eye, 24 hr
[7] = Group 5 intravitreal 2.5 mg per eye, 48 hr
[8] = Group 5 intravitreal 2.5 mg per eye, 72 hr

Average Peak Concentration, Vitreous Humor (Group 3 subcutaneous 5 mg/kg/dose, suspension): 0.40 ng/g | concentration at 6 hr (New Zealand White, rabbit, aqueous humor, other: intravitreal, 2.5 mg per eye, Group 5 intravitreal 2.5 mg per eye, 6.0 hr, read-out: aqueous humor Average Conc.): 26400 ng/g | concentration at 24 hr (New Zealand White, rabbit, aqueous humor, other: intravitreal, 2.5 mg per eye, Group 5 intravitreal 2.5 mg per eye, 24 hr, read-out: aqueous humor Average Conc.): 4270 ng/g | concentration at 48 hr (New Zealand White, rabbit, aqueous humor, other: intravitreal, 2.5 mg per eye, Group 5 intravitreal 2.5 mg per eye, 48 hr, read-out: aqueous humor Average Conc.): 915 ng/g | concentration at 72 hr (New Zealand White, rabbit, aqueous humor, other: intravitreal, 2.5 mg per eye, Group 5 intravitreal 2.5 mg per eye, 72 hr, read-out: aqueous humor Average Conc.): 120 ng/g | concentration at 0.5 h (New Zealand White, rabbit, aqueous humor, subcutaneous, 5 mg/kg, Group 3 subcutaneous 5 mg/kg, 0.5 hr, read-out: aqueous humor Average Conc.): 1.21 ng/g | concentration at 1 h (New Zealand White, rabbit, aqueous humor, subcutaneous, 5 mg/kg, Group 3 subcutaneous 5 mg/kg, 1.0 hr, read-out: aqueous humor Average Conc.): 0.41 ng/g | concentration at 2 hr (New Zealand White, rabbit, aqueous humor, subcutaneous, 5 mg/kg, Group 3 subcutaneous 5 mg/kg, 2.0 hr, read-out: aqueous humor Average Conc.): 0.66 ng/g | concentration at 2 hr (New Zealand White, rabbit, aqueous humor, subcutaneous, 5 mg/kg, Group 3 subcutaneous 5 mg/kg, 2.0 hr, read-out: aqueous humor Conc., individual eyes (OD, OS)): 0.601 ng/mL | concentration at 4 hr (New Zealand White, rabbit, aqueous humor, subcutaneous, 5 mg/kg, Group 3 subcutaneous 5 mg/kg, 4.0 hr, read-out: aqueous humor Average Conc.): 0.51 ng/g | concentration at 4 hr (New Zealand White, rabbit, aqueous humor, subcutaneous, 5 mg/kg, Group 3 subcutaneous 5 mg/kg, 4.0 hr, read-out: aqueous humor Conc., individual eyes (OD, OS)): 0.209 ng/mL | concentration at 6 h (New Zealand White, rabbit, vitreous humor, other: intravitreal, 2.5 mg per eye, Group 5 intravitreal 2.5 mg per eye, 6.0 hr, read-out: vitreous humor Average Conc.): 480000 ng/g | concentration at 24 h (New Zealand White, rabbit, vitreous humor, other: intravitreal, 2.5 mg per eye, Group 5 intravitreal 2.5 mg per eye, 24 hr, read-out: vitreous humor Average Conc.): 409000 ng/g | concentration at 24 h (New Zealand White, rabbit, vitreous humor, other: intravitreal, 2.5 mg per eye, Group 5 intravitreal 2.5 mg per eye, 24 hr, read-out: vitreous humor Conc., individual eyes (OD, OS)): 296000 ng/mL | concentration at 48 h (New Zealand White, rabbit, vitreous humor, other: intravitreal, 2.5 mg per eye, Group 5 intravitreal 2.5 mg per eye, 48 hr, read-out: vitreous humor Average Conc.): 97800 ng/g | concentration at 72 h (New Zealand White, rabbit, vitreous humor, other: intravitreal, 2.5 mg per eye, Group 5 intravitreal 2.5 mg per eye, 72 hr, read-out: vitreous humor Average Conc.): 65400 ng/g | concentration at 0.5 hr (New Zealand White, rabbit, vitreous humor, subcutaneous, 5 mg/kg, Group 3 subcutaneous 5 mg/kg, 0.5 hr, read-out: vitreous humor Average Conc.): 0.4 ng/g | concentration at 0.5 hr (New Zealand White, rabbit, vitreous humor, subcutaneous, 5 mg/kg, Group 3 subcutaneous 5 mg/kg, 0.5 hr, read-out: vitreous humor Conc., individual eyes (OD, OS)): 0.227 ng/mL | concentration at 1 hr (New Zealand White, rabbit, vitreous humor, subcutaneous, 5 mg/kg, Group 3 subcutaneous 5 mg/kg, 1.0 hr, read-out: vitreous humor Average Conc.): 0.41 ng/g | concentration at 1 hr (New Zealand White, rabbit, vitreous humor, subcutaneous, 5 mg/kg, Group 3 subcutaneous 5 mg/kg, 1.0 hr, read-out: vitreous humor Conc., individual eyes (OD, OS)): 0.407 ng/mL | concentration at 4 hr (New Zealand White, rabbit, vitreous humor, subcutaneous, 5 mg/kg, Group 3 subcutaneous 5 mg/kg, 4.0 hr, read-out: vitreous humor Average Conc.): 0.41 ng/g | concentration at 4 hr (New Zealand White, rabbit, vitreous humor, subcutaneous, 5 mg/kg, Group 3 subcutaneous 5 mg/kg, 4.0 hr, read-out: vitreous humor Conc., individual eyes (OD, OS)): 0.408 ng/mL
Compound: COC(=O)N[C@@H](Cc1ccccc1)C(=O)N[C@@H](Cc1ccc(NS(=O)(=O)O)cc1)c1csc(-c2cccs2)n1 [Compound 1 free acid]
aqueous humor Conc., individual eyes (OD, OS) [1]: BLOQ (Below the limit of quantitation (0.2 ng/mL)) (2×) and 0.519 ng/mL and 1.90 ng/mL | vitreous humor Conc., individual eyes (OD, OS) [1]: BLOQ (Below the limit of quantitation (0.2 ng/mL)) and 0.261 ng/mL | aqueous humor Conc., individual eyes (OD, OS) [2]: 0.485 ng/mL and 0.684 ng/mL and 0.229 ng/mL and 0.257 ng/mL | vitreous humor Conc., individual eyes (OD, OS) [2]: BLOQ (Below the limit of quantitation (0.2 ng/mL)) | aqueous humor Conc., individual eyes (OD, OS) [3]: BLOQ (Below the limit of quantitation (0.2 ng/mL)) and 0.594 ng/mL | vitreous humor Conc., individual eyes (OD, OS) [3]: BLOQ (Below the limit of quantitation (0.2 ng/mL)) | aqueous humor Conc., individual eyes (OD, OS) [4]: 0.229 ng/mL and BLOQ (Below the limit of quantitation (0.2 ng/mL)) | vitreous humor Conc., individual eyes (OD, OS) [4]: BLOQ (Below the limit of quantitation (0.2 ng/mL)) | aqueous humor Conc., individual eyes (OD, OS) [5]: 34200 ng/mL and 15700 ng/mL and 23400 ng/mL and 32300 ng/mL | vitreous humor Conc., individual eyes (OD, OS) [5]: 592000 ng/mL and 625000 ng/mL and 432000 ng/mL and 270000 ng/mL | aqueous humor Conc., individual eyes (OD, OS) [6]: 3890 ng/mL and 6480 ng/mL and 5540 ng/mL and 1170 ng/mL | vitreous humor Conc., individual eyes (OD, OS) [6]: 528000 ng/mL and 491000 ng/mL and 320000 ng/mL | aqueous humor Conc., individual eyes (OD, OS) [7]: 476 ng/mL and 632 ng/mL and 1220 ng/mL and 1330 ng/mL | vitreous humor Conc., individual eyes (OD, OS) [7]: 75900 ng/mL and 148000 ng/mL and 68300 ng/mL and 99000 ng/mL | aqueous humor Conc., individual eyes (OD, OS) [8]: 145 ng/mL and 172 ng/mL and 94.1 ng/mL and 70.2 ng/mL | vitreous humor Conc., individual eyes (OD, OS) [8]: 96500 ng/mL and 101000 ng/mL and 16200 ng/mL

— patent US11666558B2, “Methods of treating intraocular pressure with activators of Tie-2” (EyePoint Pharmaceuticals, Inc., priority 2015, dated 2023)
